According to ChEMBL document CHEMBL1141706 (Bioorg Med Chem Lett, 2008):

What follows are molecules tested against 5-hydroxytryptamine receptor 2A (Homo sapiens, UniProt P28223) (assay: Displacement of [3H]ketanserin from human 5HT2A receptor).
Chain of 5-hydroxytryptamine receptor 2A (P28223 whole entry): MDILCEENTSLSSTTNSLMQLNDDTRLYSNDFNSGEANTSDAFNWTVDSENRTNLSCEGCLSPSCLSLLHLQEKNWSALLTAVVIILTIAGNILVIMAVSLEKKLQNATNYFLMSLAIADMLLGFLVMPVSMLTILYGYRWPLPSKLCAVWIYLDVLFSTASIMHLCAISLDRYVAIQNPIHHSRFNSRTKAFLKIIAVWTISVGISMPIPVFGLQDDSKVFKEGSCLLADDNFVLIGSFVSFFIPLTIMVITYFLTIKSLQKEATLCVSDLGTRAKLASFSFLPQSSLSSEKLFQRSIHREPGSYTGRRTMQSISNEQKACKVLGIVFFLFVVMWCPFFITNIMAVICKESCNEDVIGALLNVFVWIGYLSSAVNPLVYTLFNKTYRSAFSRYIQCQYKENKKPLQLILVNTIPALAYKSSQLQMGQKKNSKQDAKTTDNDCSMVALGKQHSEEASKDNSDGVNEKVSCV
In the case of `COc1cccc2c1C(CN)c1ccccc1C2` (centres undefined), the Ki is reported as 1160 nM.
`COc1cccc2c1Cc1ccccc1C2CN` (centres undefined) gave a Ki of 124 nM.
Work on `COc1ccc2c(c1)Cc1ccccc1C2CN` (centres undefined) yielded a Ki of 7.5 nM.
`COc1ccc2c(c1)C(CN)c1ccccc1C2` (centres undefined) was tested, and the Ki was 1370 nM.
